In patent publication US20220144812A1, “QUINOLINE DERIVATIVES AND THEIR USE FOR THE TREATMENT OF CANCER” (Epizyme, Inc., priority 2019, published 2022):
Read-outs that look alike come from different tables or passages of the source.

Key:
[1] = tested on: H3K18Ac in HB-CLS-2 cells; assay: H3K18AC in-cell western (ICW) assay; assay type: cell-based; conditions: H3K18Ac in-cell western, read-out: CREBBP ICW IC50
Method in brief: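 In-cell western: after methanol fixation, blocking, overnight 4° C anti-H3K18Ac staining, then 800CW secondary plus DRAQ5 for DNA content, integrated intensities were scanned at 800 and 700 nm. Before this, compound exposure lasted 2 hr at 37° C in HB-CLS-2 cells plated 16–24 hours earlier. Values expressed as IC50 (μM).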

647V cells = assay: High throughput proliferation (HTP) assay; assay type: cell-based; conditions: Homo sapiens, 647-V, high throughput proliferation, read-out: CREBBP HTP IC50
Method in brief: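 Proliferation IC50 (micromolar) derived from a 7-day CellTiter-Glo viable-cell readout in 647V cells exposed, in triplicate, to rising compound concentrations; cells grown in DMEM plus 15% heat-inactivated FBS at 37° C under 5% CO2.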

CREBBP (1084-1701) = target: T1, CREBBP (1084-1701) (Homo sapiens, UniProt Q92793); assay: Biochemical assay for CREBBP (1084-1701), SAMDI; conditions: SAMDI, read-out: CREBBP Biochemistry IC50
T1 construct: measured in the following biochemical assay using CREBBP (1084-1701); purchased
Method in brief: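 Acetyltransferase activity measured by SAMDI mass spectrometry after capture on biochip. Enzyme sat with compound 30 min at RT before acetyl-CoA and biotinylated H3 11-25 (K14R, K23R) peptide were added for 30 min at RT. Formic acid quench, bicarbonate neutralisation; IC50 values reported.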

EP300 (P300(1048-1664)) = target: T2, EP300 (P300(1048-1664)) (Homo sapiens, UniProt Q09472); assay: Biochemical assay for EP300, SAMDI; conditions: EP300, SAMDI; read-out: EP300 Biochemistry IC50
T2 construct: P300(1048-1664)
T2 sequence (Q09472 1048-1664): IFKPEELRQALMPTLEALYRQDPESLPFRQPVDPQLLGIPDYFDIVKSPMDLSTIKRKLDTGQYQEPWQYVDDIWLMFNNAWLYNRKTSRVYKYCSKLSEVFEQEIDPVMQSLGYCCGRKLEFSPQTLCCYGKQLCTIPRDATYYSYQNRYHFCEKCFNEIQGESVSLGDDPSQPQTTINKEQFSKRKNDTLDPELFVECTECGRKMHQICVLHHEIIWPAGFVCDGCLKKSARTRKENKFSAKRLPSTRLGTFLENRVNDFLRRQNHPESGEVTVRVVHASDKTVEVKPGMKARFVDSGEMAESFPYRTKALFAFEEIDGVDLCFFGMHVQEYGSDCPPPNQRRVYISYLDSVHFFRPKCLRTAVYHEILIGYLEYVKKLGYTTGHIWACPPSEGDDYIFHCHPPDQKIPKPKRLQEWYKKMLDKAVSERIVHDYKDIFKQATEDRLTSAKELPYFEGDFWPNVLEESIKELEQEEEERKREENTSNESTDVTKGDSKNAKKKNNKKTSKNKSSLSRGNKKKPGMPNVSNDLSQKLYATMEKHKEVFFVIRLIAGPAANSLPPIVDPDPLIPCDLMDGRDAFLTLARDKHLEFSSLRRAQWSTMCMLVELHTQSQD
Excerpt: The following example describes materials and methods relating to a biochemical assay for EP300. IC50 values (micromolar (μM)) are summarized in Table 1, Table 2, and Table 3 under the column labeled: “EP300 Biochemistry IC50 (micromolar).”

T1 sequence (Q92793 1084-1701): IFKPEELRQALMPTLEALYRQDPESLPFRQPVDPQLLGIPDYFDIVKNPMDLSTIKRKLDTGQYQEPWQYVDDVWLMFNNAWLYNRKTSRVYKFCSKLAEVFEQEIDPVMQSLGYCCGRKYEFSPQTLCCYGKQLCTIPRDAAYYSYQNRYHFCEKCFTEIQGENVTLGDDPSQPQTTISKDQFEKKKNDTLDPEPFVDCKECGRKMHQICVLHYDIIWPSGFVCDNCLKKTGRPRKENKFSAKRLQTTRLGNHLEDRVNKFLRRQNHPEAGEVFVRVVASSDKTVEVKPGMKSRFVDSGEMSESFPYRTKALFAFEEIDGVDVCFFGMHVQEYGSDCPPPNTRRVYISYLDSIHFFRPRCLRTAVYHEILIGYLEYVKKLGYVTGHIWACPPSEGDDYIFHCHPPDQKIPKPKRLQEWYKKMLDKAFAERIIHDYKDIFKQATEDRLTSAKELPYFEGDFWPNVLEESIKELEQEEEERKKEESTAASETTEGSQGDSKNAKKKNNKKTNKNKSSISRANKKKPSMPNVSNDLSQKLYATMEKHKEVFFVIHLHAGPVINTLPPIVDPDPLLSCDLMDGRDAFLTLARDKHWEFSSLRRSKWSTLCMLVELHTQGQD

| SMILES | IC50 [1] | IC50 (CREBBP (1084-1701)) | IC50 (EP300 (P300(1048-1664))) | IC50 ([1]; HB-CLS-2 cells) | IC50 (647V cells) | IC50 (647V cells; 647V cells) |
| --- | --- | --- | --- | --- | --- | --- |
| CCn1ncc(CN(C)C(=O)c2nc(N3CCc4[nH]c(C)nc4C3)nc3ccc(Cl)cc23)c1C [Compound 159] | 10000 nM | 20000 nM | 7700 nM |  | 10000 nM |  |
| CCn1ncc(CN(C)C(=O)c2nc(-c3ccc(OCCN)c(C)c3)nc3ccc(Cl)cc23)c1C [Compound 76] | 1100 nM | 28 nM | 180 nM |  | 840 nM |  |
| CCn1ncc(CN(C)C(=O)c2nc(-c3cc4c(C)[nH]nc4cc3Cl)nc3ccc(Cl)cc23)c1C [Compound 1] | 27 nM | 3.3 nM | 2.1 nM |  | 20 nM |  |
| CCn1ncc(CN(C)C(=O)c2nc(-c3ccc(OCCNC(C)=O)cc3Cl)nc3ccc(Cl)cc23)c1C [Compound 56] | 630 nM | 280 nM | 580 nM |  | 520 nM |  |
| CCn1ncc(CN(C)C(=O)c2nc(-c3cc(C)cc(NCCN(C)C(=O)OC(C)(C)C)c3)nc3ccc(Cl)cc23)c1C [Compound 99] | 2000 nM | 2200 nM | 2600 nM |  | 2100 nM |  |
| CCn1ncc(CN(C)C(=O)c2nc(-c3cc(C)cc(NC4CCOCC4)c3)nc3ccc(Cl)cc23)c1C [Compound 78] | 1100 nM | 67 nM | 66 nM |  | 1200 nM |  |
| CCn1ncc(CN(C)C(=O)c2nc(-c3cc4c(N)noc4cc3C)nc3ccc(Cl)cc23)c1C [Compound 466] | 202 nM | 29.5 nM | 71.5 nM |  | 189 nM |  |
| CCn1ncc(CN(C)C(=O)c2nc(-c3cc(C)cc(NC(=O)CNC)c3)nc3ccc(Cl)cc23)c1C [Compound 13] | 120 nM | 10 nM | 7.7 nM |  | 110 nM |  |
| CCn1ncc(CN(C)C(=O)c2cc(-c3cc4[nH]ncc4c(C)n3)nc3ccc(Cl)cc23)c1C [Compound 401] |  | 56 nM | 18 nM | 120 nM |  | 130 nM |
| CCn1ncc(CN(C)C(=O)c2nc(-c3cc4c(N)nn(C)c4cc3C)nc3ccc(Cl)cc23)c1C [Compound 433] | 20000 nM | 24900 nM | 12500 nM |  | 2220 nM |  |
| CCn1ncc(CN(C)C(=O)c2nc(-c3ccc(NC4CCOCC4)c(OC)c3)nc3ccc(Cl)cc23)c1C [Compound 64] | 710 nM | 79 nM | 300 nM |  | 580 nM |  |
| CCn1ncc(CN(C)C(=O)c2nc(-c3cc(C)cc(CNC)c3)nc3ccc(Cl)cc23)c1C [Compound 69] | 880 nM | 100 nM | 610 nM |  | 420 nM |  |
| CCn1ncc(CN(C)C(=O)c2nc(-c3cc(OC)c4cn[nH]c4c3)nc3ccc(Cl)cc23)c1C [Compound 390] |  | 33 nM | 140 nM | 650 nM |  | 680 nM |
| CCn1ncc(CN(C)C(=O)c2nc(-c3ccc(OCCNC(C)=O)c(C)c3)nc3ccc(Cl)cc23)c1C [Compound 43] | 380 nM | 69 nM | 340 nM |  | 460 nM |  |
| CCn1ncc(CN(C)C(=O)c2nc(-c3cc(C)c4c(=O)[nH][nH]c4c3)nc3ccc(Cl)cc23)c1C [Compound 468] | 213 nM | 10.2 nM | 13.5 nM |  | 158 nM |  |
| CCn1ncc(CN(C)C(=O)c2nc(-c3ccc(OCC(O)CNC)cc3Cl)nc3ccc(Cl)cc23)c1C (stereo not shown) [Compound 20] | 180 nM | 27 nM | 10 nM |  | 71 nM |  |
| CCn1ncc(CN(C)C(=O)c2nc(-c3cc(Cl)cc(C(=O)NC)c3)nc3ccc(Cl)cc23)c1C [Compound 392] |  | 50000 nM | 50000 nM | 20000 nM |  | 20000 nM |
| CCn1ncc(CN(C)C(=O)c2nc(-c3ccc(NC4CCOCC4)cn3)nc3ccc(Cl)cc23)c1C [Compound 58] | 670 nM | 1500 nM | 610 nM |  | 1400 nM |  |
| CCn1ncc(CN(C(=O)c2cc(-c3ccc(NCCNC)c(C)n3)nc3ccc(Cl)cc23)C(C)C)c1C [Compound 465] | 4870 nM | 364 nM | 1480 nM |  | 1930 nM |  |
| CCn1ncc(CN(C)C(=O)c2nc(-c3cc(CNC)nn3C)nc3ccc(Cl)cc23)c1C [Compound 403] |  | 50000 nM | 22000 nM | 12000 nM |  | 10000 nM |
| CCn1ncc(CN(C)C(=O)c2nc(-c3cc(Cl)cc(CNC4CCNCC4)c3)nc3ccc(Cl)cc23)c1C [Compound 394] |  | 2000 nM | 3800 nM | 5400 nM |  | 4200 nM |
| CCn1ncc(CN(C)C(=O)c2cc(-c3cnc(CNC)[nH]3)nc3ccc(Cl)cc23)c1C [Compound 149] | 7800 nM | 14000 nM | 6700 nM |  | 9200 nM |  |

The next lines start with results.

| IC50 [1] | IC50 (CREBBP (1084-1701)) | IC50 (EP300 (P300(1048-1664))) | IC50 ([1]; HB-CLS-2 cells) | SMILES | IC50 (647V cells) | IC50 (647V cells; 647V cells) |
| --- | --- | --- | --- | --- | --- | --- |
| 158 nM | 17.3 nM | 15.4 nM |  | CCn1ncc(CN(C)C(=O)c2nc(-c3ccc4n[nH]c(N)c4c3)nc3ccc(Cl)cc23)c1C [Compound 532] | 288 nM |  |
| 197 nM | 116 nM | 23.3 nM |  | CCc1ncc(CN(C)C(=O)c2cc(-c3ccc(N(C)C4CN(C)C4)c(C)n3)nc3ccc(Cl)cc23)n1C [Compound 572] | 133 nM |  |
| 260 nM | 54 nM | 142 nM |  | CCn1ncc(CN(C)C(=O)c2cc(-c3cnc(NCCNC)c(C)n3)nc3ccc(Cl)cc23)c1C [Compound 525] | 313 nM |  |
| 102 nM | 25.1 nM | 14.4 nM |  | CNc1[nH]nc2ccc(-c3nc(C(=O)N(C)Cc4cnc(C5CC5)n4C)c4cc(COC)ccc4n3)cc12 [Compound 616] | 160 nM |  |
| 82.8 nM | 20.5 nM | 6.1 nM |  | CNCCNc1ccc(-c2cc(C(=O)N(C)Cc3cnc(C4CC4)n3C)c3cc(Cl)ccc3n2)nc1C [Compound 540] | 23.3 nM |  |
| 74.1 nM | 6.22 nM | 2.7 nM |  | CCc1ncc(CN(C)C(=O)c2nc(-c3cc(Cl)c4[nH]cnc4c3)nc3ccc(COC)cc23)n1C [Compound 523] | 34.7 nM |  |
| 470 nM | 68.4 nM | 35 nM |  | CCc1ncc(CN(C)C(=O)c2cc(-c3ccc(NCCNC)c(C)n3)nc3ccc(COC)cc23)n1C [Compound 513] | 203 nM |  |
| 470 nM | 8.96 nM | 2.7 nM |  | CCc1ncc(CN(C)C(=O)c2nc(-c3cc(C)c4[nH]c(=O)[nH]c4c3)nc3ccc(Cl)cc23)n1C [Compound 514] | 363 nM |  |
| 194 nM | 58.4 nM | 46.5 nM |  | CCn1ncc(CN(C)C(=O)c2nc(-c3cc(C)nc(NCCNC)c3)nc3ccc(COC)cc23)c1C [Compound 516] | 125 nM |  |
| 153 nM | 29.3 nM | 16.3 nM |  | CCn1ncc(CN(C)C(=O)c2nc(-c3cc(-c4ncc[nH]4)n(C)n3)nc3ccc(Cl)cc23)c1C [Compound 495] | 140 nM |  |
| 334 nM | 80.7 nM | 23.8 nM |  | CCn1ncc(CN(C)C(=O)c2cc(-c3cc(C(=O)NC)n(C)n3)nc3ccc(COC)cc23)c1C [Compound 520] | 650 nM |  |
| 5550 nM | 5080 nM | 4980 nM |  | CCn1ncc(CN(C)C(=O)c2nc(-c3ccc(OCCNC)c(Cl)c3)nc3ccc(C4COC4)cc23)c1C [Compound 498] | 2880 nM |  |
